The text below walks through data of patent publication US20080115593A1, “Method for Detecting Conformational Change of Calmodulin, a Method for Screening a Substance Having an Activity that Affects to Conformational Change of Calmodulin” (FUENCE CO., LTD., priority 2004, published 2008).

The experiment concerns the target T1, Calmodulin derived from bovine (Bos taurus, UniProt P62157).
T1 construct: purchased Sigma
The experiment is described as follows: Tension and elasticity change of calmodulin film detected by mechanochemical sensor (Example 1). The experiment is classed as binding. The note with it: FIG. 1; for isotropic tension of the calmodulin film: 10 mM Hepes buffer pH7.4 containing 0.1 M NaCl, flow 0.1 to 0.2 mL/min. As for the experimental part: Calmodulin derived from bovine (Sigma) was dissolved into purified water at a concentration of 2 mg/ml. This solution was sprayed under dry air using an electrospry device described in WO 2002-511792 or an immobilzing device described in Japanese Patent Publication No. 2003-136005. The solution was permeated through a mask with holes of 400 μm in length and 800 μm in width, and then a film was prepared on 1.2% polyvinylpyrrolidone using an electrospray method (the EDS method). The resulting film was placed on an apparatus having a mechanochemical sensor which was described in WO 2002-503332 or U.S. Pat. Publication No. 6,033,913, and it was immersed into 10 mM Hepes buffer solution pH7.4 (hereinafter referred to as “the buffer solution”) containing 0.1 M NaCl. The buffer solution was passed through the film existing on the detecting apparatus at the flow rate of 0.1 to 0.2 mL/min, in order to stabilize the tension of the sample film. Thereafter CaCl2 solution dissolved in said buffer solution was passed through at the same flow rate to detect changes in tension and elasticity (FIG. 1).
A place where the horizontal line (indicating the initial state) uprises means a point where tension is given to the sample film, and compliance is detected where the line oscillates. […] Meanwhile, for example, following review can be refereed to the conformational change of calmodulin, (Vetter S. W. and Leclerc, E. (2003). Novel aspects of calmodulin target recognition and activation. Eur. J. Biochem. 270, 404-414).

Take `[Ca+2].[Cl-].[Cl-]` [CaCl2]: the “isotropic tension of the calmodulin film” value is given as “remarkably increases”. In addition, the “reversibility of the effect on the film when restored by the buffer solution” value (buffer solution passed after CaCl2) is reported as “reversible”. `O=C(O)CN(CCN(CC(=O)O)CC(=O)O)CC(=O)O` [EDTA]: the “isotropic tension of the calmodulin film” value was “further decreases”.
